Data on 15 compounds can be found in patent publication US6323240A, “4-phenyl-4-oxo-butanoic acid derivatives with kynurenine-3-hydroxylase inhibiting activity” (Pharmacia & Upjohn S.p.A., priority 1995, dated 2001).

Molecules are shown by their SMILES.

T1 sequence (O88867 whole entry): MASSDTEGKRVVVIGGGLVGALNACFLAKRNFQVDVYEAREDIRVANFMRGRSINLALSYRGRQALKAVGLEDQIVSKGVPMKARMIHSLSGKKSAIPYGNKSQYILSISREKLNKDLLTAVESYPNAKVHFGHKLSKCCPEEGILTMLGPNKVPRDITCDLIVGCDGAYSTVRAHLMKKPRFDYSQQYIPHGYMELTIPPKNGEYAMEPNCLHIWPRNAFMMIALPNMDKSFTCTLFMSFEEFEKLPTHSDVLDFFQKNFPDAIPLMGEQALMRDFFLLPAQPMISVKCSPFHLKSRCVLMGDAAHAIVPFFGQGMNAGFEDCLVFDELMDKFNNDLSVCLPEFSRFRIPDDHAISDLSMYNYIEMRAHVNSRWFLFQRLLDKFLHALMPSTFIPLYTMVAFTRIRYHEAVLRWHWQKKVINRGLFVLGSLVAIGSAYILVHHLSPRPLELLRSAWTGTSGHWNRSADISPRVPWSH

The target of one data set is T1, kynurenine-3-hydroxylase (Rattus norvegicus, UniProt O88867). Nature of the data set: Kynurenine-3-hydroxylase assay in the rat brain (conversion of L-kynurenine to L-3-hydroxykynurenine, HPLC with coulometric detection). It is filed as biochemical. Conditions: rat brain homogenate; 50 μM L-kynurenine; pH 7.5; 60 min. The method, then:
Kynurenine-3-hydroxylase Assay in the Rat Brain
Brain was homogenized in ice-cold 0.32 M sucrose and centrifuged at 12000×g for 30 min at 4° C. The pellet was washed three times with 0.32 M sucrose by centrifugation and suspended in 0.14 M KCl in 20 mM K-phosphate buffer at pH 7 (1 g tissue in 2 ml buffer).
The reaction mixture contained: 75 μl of suspended homogenate; 100 μl of substrate solution containing 50 mM K-phosphate buffer pH 7.5, 2 mM MgCl2, 0.4 mM NADPH, 50 μM L-kynurenine (final concentration), and 25 μl of different concentrations of inhibitor solutions. The reaction was stopped by addition of 200 μl of 1 M HClO4 after 60 min incubation. L-3-hydroxykynurenine formed was quantified by HPLC with coulometric detection at a working voltage of +0.2 V. The column was a 10 cm C18 reversed phase (3 μm. The mobile phase consisted of 950 ml distilled water, 20 ml acetonitrile, 9 ml triethylamine, 5.9 ml phosphoric acid, 100 mg sodium EDTA and 1.5 g heptanesulfonic acid. The flow rate was 1 ml/min.
`CC(CC(=O)c1ccc(F)c(F)c1)C(=O)O` (racemic) [PNU 157952, (R,S)-2-methyl-4-(3',4'-difluorophenyl)-4-oxo-butanoic acid] yielded an IC50 of 3.9 µM.

As for `COC(CC(=O)c1ccc(F)c(F)c1)C(=O)O` (racemic) [PNU 158380, (R,S)-2-methoxy-4-(3',4'-difluorophenyl)-4-oxo-butanoic acid], the IC50 turned out to be 12.6 µM.

As for `O=C(CC(O)C(=O)O)c1cccc(Cl)c1` (racemic) [PNU 158789, (R,S)-2-hydroxy-4-(3'-chlorophenyl)-4-oxo-butanoic acid], the IC50 is 0.45 µM.

For `COC(=O)C(O)CC(=O)c1ccc(Cl)c(Cl)c1` (racemic) [PNU 161211, Methyl(R,S)-2-hydroxy-4-(3',4'-dichlorophenyl)-4-oxo-butanoate], half-maximal inhibition (IC50) was put at 3.1 µM.

As to `CC(CC(=O)O)C(=O)c1ccc(Cl)c(Cl)c1` (racemic) [PNU 161243, (R,S)-3-methyl-4-(3',4'-dichlorophenyl)-4-oxo-butanoic acid], the IC50 turned out to be 14.3 µM. Against the preceding compound, the IC50 is about 4.6-fold higher.

For the compound `O=C(O)CCC(=O)c1ccc(Cl)c(Cl)c1` [PNU 156588, 4-(3',4'-dichlorophenyl)-4-oxo-butanoic acid], the IC50 worked out at 0.9 µM.

In turn, `O=C(O)CCC(=O)c1ccc(F)c(F)c1` [PNU 157720, 4-(3',4'-difluorophenyl)-4-oxo-butanoic acid] yielded an IC50 of 3.7 µM.

In another data set the test system is N-methyl-D-aspartate (NMDA) receptor.
Assay: not given
Conditions: cited from earlier work.
In the case of `O=C(O)c1cccnc1C(=O)O` [QUIN, quinolinic acid], the “agonism at the NMDA receptor” value is on record as “highly selective agonist”.

For the next data set, the system named is ionotropic excitatory aminoacid receptors.
Assay: not given
The conditions noted are these: preferentially acting at the glycine co-agonist site of the NMDA receptor; cited from earlier work.
As to `O=C(O)c1cc(=O)c2ccccc2[nH]1` [KYNA, kynurenic acid], the “antagonism of the ionotropic excitatory aminoacid receptors” value is listed as “broad spectrum antagonist”.

A further data set relates to neuronal cell cultures.
Assay: not given
The conditions noted are these: relatively low concentrations; prolonged period of time or in combination with glutamate; cited from earlier work.
For `O=C(O)c1cccnc1C(=O)O` [QUIN, quinolinic acid], the “neurotoxicity in neuronal cell cultures” value is on record as “neurotoxic”.

The subject of a further data set is CNS.
Assay: not given
Conditions: in vivo; cited from earlier work.
In the case of `O=C(O)c1cccnc1C(=O)O` [QUIN, quinolinic acid], the “in vivo lesions and convulsions” value is “convulsions and axon sparing lesions”.

The data set is the same for the next values; noted with them: injected in the CNS; cited from earlier work.
For `O=C(O)c1cc(=O)c2ccccc2[nH]1` [KYNA, kynurenic acid], the “action when injected in the CNS” value is on record as “neuroprotective agent”.

Regarding `O=C(O)c1cccnc1C(=O)O` [QUIN, quinolinic acid], the “action when injected in the CNS” value was “neurotoxin”.

For another data set, the system named is excitotoxic neuronal damage evoked by QUIN.
Assay: not given
Conditions: co-injected with QUIN; cited from earlier work.
With `O=C(O)c1cc(=O)c2ccccc2[nH]1` [KYNA, kynurenic acid], the “prevention of QUIN-evoked excitotoxic neuronal damage” value is given as “able to prevent the excitotoxic neuronal damage”.

Another data set concerns the target T1, kynurenine-3-hydroxylase. Nature of the data set: Kynurenine-3-hydroxylase assay in the rat liver (radiometric, tritiated water release, rat liver mitochondrial extract). It is filed as biochemical. Further details: Rat liver mitochondrial extract was used as enzymatic preparation for this assay; from tissue; host or cells: rat liver mitochondrial extract. Conditions: 0.025 mM L-kynurenine, pH 8.1, 37° C., 30 min. The method, then:
Kynurenine-3-hydroxylase Assay in the Rat Liver
The assay for kynurenine 3-hydroxylase was based on the enzymatic synthesis of tritiated water during the hydroxylation reaction. Radiolabeled water was quantified following selective adsorption of the isotopic substrate and its metabolite with activated charcoal.
Rat liver mitochondrial extract was used as enzymatic preparation for this assay.
The assay for kynurenine 3-hydroxylase activity was carried out at 37° C. for a time of 30 min. The reaction mixture of a total volume of […] was constituted of […] of suspended extract, 100 mM Tris/Cl^- buffer pH 8.1, 10 mM EDTA, 100 mM Kcl, 0.8 mM NADPH, 0.025 mM L-kynurenine, […] L-(3,5-^3 H)Kynurenine (10 Ci/mmol) and […] of different concentration of inhibitor solutions. After the incubation the reaction was terminated by the addition of 1 mL of 7.5% (w/v) activated charcoal, vortexed and centrifugated for 7 min.
A […] aliquot of supernatant was counted by scintillation spectroscopy in 5 ml of liquid scintillation.
`CC(CC(=O)c1ccc(F)c(F)c1)C(=O)O` (racemic) [PNU 157952, (R,S)-2-methyl-4-(3',4'-difluorophenyl)-4-oxo-butanoic acid] yielded an IC50 of 55.1 µM.

With `COC(CC(=O)c1ccc(F)c(F)c1)C(=O)O` (racemic) [PNU 158380, (R,S)-2-methoxy-4-(3',4'-difluorophenyl)-4-oxo-butanoic acid], the half-maximal inhibitory concentration (IC50) was 42.4 µM.

`O=C(CC(Cl)C(=O)O)c1ccc(Cl)c(Cl)c1` (racemic) [PNU 158781, (R,S)-2-chloro-4-(3',4'-dichlorophenyl)-4-oxo-butanoic acid] gave an IC50 of 13.3 µM.

In turn, `O=C(CC(O)C(=O)O)c1cccc(Cl)c1` (racemic) [PNU 158789, (R,S)-2-hydroxy-4-(3'-chlorophenyl)-4-oxo-butanoic acid] yielded an IC50 of 1.8 µM.

The compound `COC(=O)C(O)CC(=O)c1ccc(Cl)c(Cl)c1` (racemic) [PNU 161211, Methyl(R,S)-2-hydroxy-4-(3',4'-dichlorophenyl)-4-oxo-butanoate] gave an IC50 of 5.6 µM. This IC50 lies about 3.1-fold higher than the previous one.

Compound `COC(=O)C(CC(=O)c1ccc(Cl)c(Cl)c1)Cc1ccccc1` (racemic) [PNU 167531, (R,S)-Methyl-2-benzyl-4-(3',4'-dichlorophenyl)-4-oxo-butanoate] registered an IC50 of 1.9 µM.

The compound `O=C(O)CC(C(=O)c1ccc(Cl)c(Cl)c1)c1ccccc1` (racemic) [PNU 167541, (R,S)-3-phenyl-4-(3',4'-dichlorophenyl)-4-oxo-butanoic acid] displayed a 50% inhibitory concentration (IC50) of 55 µM. This IC50 lies about 29-fold higher than the previous one.

For the compound `O=C(O)CCC(=O)c1ccc(Cl)c(Cl)c1` [PNU 156588, 4-(3',4'-dichlorophenyl)-4-oxo-butanoic acid], the IC50 is 3.9 µM.

Turning to `O=C(O)CCC(=O)c1ccc(F)c(F)c1` [PNU 157720, 4-(3',4'-difluorophenyl)-4-oxo-butanoic acid], half-maximal inhibition (IC50) required 18.3 µM.

`COC(=O)CCC(=O)c1ccc(Cl)c(Cl)c1` [PNU 158381, Methyl 4-(3',4'-dichlorophenyl)-4-oxo-butanoate] yielded an IC50 of 5.7 µM.

With `C=C(CC(=O)c1ccc(Cl)c(Cl)c1)C(=O)O` [PNU 158432, 2-methyliden-4-(3',4'-dichlorophenyl)-4-oxo-butanoic acid], the IC50 is 36 µM. Compared with the last compound, the IC50 is about 6.3-fold higher.

With `O=C(O)C(O)C(Cc1ccccc1)C(=O)c1ccc(Cl)c(Cl)c1` (centres unmarked) [PNU 167536, 2-hydroxy-3-benzyl-4-(3',4'-dichlorophenyl)-4-oxo-butanoic acid], the IC50 came to 61.6 µM. This IC50 is about 1.7-fold higher than that of the compound before.

The IC50 is the concentration that gives 50% inhibition. High values mean a need for much substance, low ones inhibition by little substance.
